{"source": "patent US20240299339A1", "about": "“COMPOSITION FOR SUPPRESSING MUSCLE DAMAGE” (OTSUKA PHARMACEUTICAL CO., LTD., priority 2021, published 2024)", "test": "Verification of function of KMP using 400-m run: blood markers in healthy subjects", "type": "in vivo, human", "conditions": "16 healthy subjects (20 to 22 years old); single dose of capsule food containing 10 mg of KMP, 3 h before two 400-m full-speed runs 90 min apart; vs placebo", "method": "According to usual methods, blood samples were taken, and the concentration of each blood marker was measured. […] It is known that blood myoglobin is detected with muscle fiber damage and that its concentration increases with muscle fiber damage (J. Appl. Physiol. 83 (4): 1076-1082, 1997).\nThe capsule foods used in the test were prepared according to the following procedures. Quinoa grains were extracted twice with 50% aqueous ethanol at 70° C., followed by concentration under reduced pressure. To a solution obtained by purifying the resultant with resin, Aromase H2 (produced by Amano Enzyme, Inc.) was added, and the enzyme was allowed to act (conversion into aglycone) while stirring at 50° C. The resulting reaction liquid was heated to 100° C. and maintained for 15 minutes to inactivate the enzyme. Thereafter, the treated liquid was freeze-dried to give an ethanol extraction powder. To the powder, starch was added in an amount equal to the amount of the powder (on a weight basis), followed by mixing. Capsules were filled with the resulting mixture in an amount of 116 mg (including 2.5 mg of kaempferol) per capsule. The subjects ingested four capsules (10 mg of kaempferol in total) at one time. The food used as the placebo was obtained by filling capsules with only starch.", "data": [{"smiles": "O=c1c(O)c(-c2ccc(O)cc2)oc2cc(O)cc(O)c12", "note": "[KMP, Kaempferol]", "values": [{"measurement": "blood myoglobin level after running at full speed", "result": "significantly lower"}]}]}
